From patent US11299453B2 (Universität zu Köln, priority 2017, dated 2022)

Assays:
Assay type in all cases: cell-based
[1] = system: residual PSCs in pre-purified cardiac clusters of murine αPIG-AT25 iPSCs; experiment: Colony formation assay after treatment of pre-purified miPSC cardiac clusters; settings: 48 h
Method: (§1) Aiming at complete elimination of remaining PSCs in PSC-derived cell aggregates, murine cardiac clusters were pre-purified with 2-4 μg/ml puromycin from day 9 until day 14 of differentiation in order to prevent complete removal of PSCs and then treated with SM6 for 2 days to assess its potential for removal of contaminating PSCs in the absence of puromycin. After treatment, cardiac clusters were dissociated with 0.25% trypsin-EDTA supplemented with 50 U/ml of DNase I and the level of PSC contamination was determined using colony formation assay, flow cytometry for SSEA-1 and RT-PCR for Oct4. In colony formation assays 2×10^5 cells were plated on a 6 cm cell culture dish containing MEF and cultured in maintenance medium supplemented with 1000 U/ml of mLIF for 7-10 days. Developing PSC colonies on MEF plates were quantified and visualized with 1% crystal violet (Fluka Analytical, St. Louis, USA) diluted in methanol (Applichem).
Murine αPIG-AT25 iPSCs were differentiated in spinner flasks and pre-purification of CMs with puromycin was initiated on day 9 for a time period of 5 days, as is schematically illustrated in FIG. 6a). Compared to the standard protocol for the selection of miPSC-CMs, the applied concentration of puromycin was reduced from 8 μg/ml to 2 μg/ml in order to preserve a small population of PSCs in the cardiac clusters which were then treated with 1 μM, 5 μM and 10 μM of compound SM6 for 48 hours.
For quantifying the residual PSCs, the cardiac cluster-derived cells were cultured on MEFs under iPSC conditions to allow PSCs to form colonies which were visualized by crystal violet staining. The pluripotency of grown colonies was confirmed by immunocytochemical stainings for Oct4, at day 7 after plating of CMs from dissociated cardiac clusters on MEF.

[2] = system: pre-purified cardiac clusters of murine αPIG-AT25 iPSCs; experiment: Cell yield, flow cytometry and morphology of pre-purified miPSC cardiac clusters
Method: The differentiation of transgenic mPSCs was initiated in mass cultures as briefly described below. One million cells were transferred per non-adhering 10 cm dish with 14 ml differentiation medium composed of Iscove's Modified Dulbecco's Medium (IMDM) with GlutaMAX (Life Technologies) supplemented with 20% FBS, 1×NEAA and 100 μM β-ME. Embryoid bodies (EBs) from day 2 of differentiation were transferred in a 250 ml spinner flask (CELLSPIN 250, Integra Biosciences, Fernwald, Germany) with a density of 3×10^4 EBs per 200 ml of differentiation medium. On the first 2 days of differentiation medium was supplemented with 50 μg/ml L-ascorbic acid phosphate (AA, Wako pure chemicals industry, Japan) in order to promote the development of cardiac cells. For the selection of GFP-expressing CMs, 50 ml of the medium was exchanged with fresh differentiation medium and 8 μg/ml puromycin (Life Technologies) were supplemented on day 9 of differentiation. Two days later, the cardiac clusters were transferred on non-adhering 10 cm dishes with fresh differentiation medium containing 8 μg/ml puromycin. In the further course of differentiation medium was exchanged every 2-3 days. If not otherwise specified, the purification of GFP-positive CMs with puromycin was continued until day 16 of differentiation. For single cell analyses and transfer of PSC-derived CMs on cell culture plates, cardiac clusters were dissociated with 0.25% trypsin-EDTA (Life Technologies) supplemented with 50 U/ml DNase I (AppliChem, Darmstadt, Germany) for 20-30 min at 37° C. The mPSC-derived CMs were filtered through a polyamide membrane with […] pore size (Sefar, Heiden, Switzerland). Cell numbers were determined with a Neubauer hemocytometer and cells were stored on ice until further use.
as §1, with “In colony formation assays 2×10^5 cells were plated on a 6 cm cell culture dish containing MEF and cultured in maintenance medium supplemented with 1000 U/ml of mLIF for 7-10 days.” left out, “(Applichem). […]” for “(Applichem).”
Cells were measured with an Attune acoustic focusing cytometer (Life Technologies) and data was analyzed with the Attune Cytometric software v1.2.5 (Life Technologies). Marker expression was analyzed in a gated population of 10^4 viable cells. […]

[3] = system: colony forming PSCs in pre-purified cardiac clusters of murine ESC line αPIG44-D3; experiment: Colony formation assay after treatment of pre-purified mESC cardiac clusters; settings: 48 h
Method: as §1
To confirm the PSC-eliminating effect of the compound SM6, pre-purified cardiac clusters derived from transgenic murine ESC line αPIG44-D3 were also treated with SM6. The cells were differentiated in spinner flasks and incubated for 48 h with compound SM6 as described above with the exception that pre-purification was performed with 4 μg/ml of puromycin between day 9 and day 14, as schematically illustrated in FIG. 7a).

[4] = system: unpurified EBs of murine iPSCs; experiment: Flow cytometry (cTnT) and cell yield of unpurified EBs; settings: for cTnT+ CM population / fold increase of CM purity (cTnT+) compared to DMSO-treated control / reduction of total cell yield relative to DMSO control: day 9 to day 16: SM6 1 μM then 5 μM from day 14, puromycin 8 μg/ml
Method: Purifying the whole CM population including GFP-negative CMs in murine PSC-derived EBs was tested with SM6 as well. EBs from day 9 of differentiation were treated starting with 1 μM of SM6 for 5 days followed by treatment with 5 μM from day 14 until day 16 of differentiation. The percentage of CM population in EBs was monitored by flow cytometry and the amount of contaminating PSCs was quantified by colony formation assay as described above. Fluorescence images of PSC-derived cell aggregates were captured with a Zeiss Axiovert 200M fluorescence microscope and analyzed with Zeiss Axiovision 4.5 software.
Determination of CM purity in the cell population was performed by flow cytometric analysis. PSC-derived EBs or cardiac clusters were dissociated with 0.25% trypsin-EDTA. Dead cells were stained with LIVE/DEAD fixable dead cell stain kit (Life Technologies) prior to cell fixation using in 4% PFA for 15 min. Immunological staining of cardiac Troponin T (cTnT) was performed in order to detect the total CM population including GFP-negative CMs. […] An anti-cTnT mouse antibody (sc-20025, Santa Cruz, Dallas, USA) and the corresponding isotype control (sc-3878, Santa Cruz) were diluted 1:50 in 0.8% BSA in PBS with 1% saponin and incubated for 30 min at 4° C., respectively. After washing the cells with PBS, cells were incubated with an AF555-conjugated secondary antibody (1:100, A21422, Life Technologies) in 0.8% BSA and 1% saponin in PBS for 1 h at 4° C.
Cells were measured with an Attune acoustic focusing cytometer (Life Technologies) and data was analyzed with the Attune Cytometric software v1.2.5 (Life Technologies). Marker expression was analyzed in a gated population of 10^4 viable cells.
In order to determine whether it is possible to entirely replace puromycin pre-treatment with SM6 and thus circumvent the need for genetic manipulation of PSCs to enable CM selection, the SM6 was supplemented to the differentiation medium of miPSCs from day 9 onwards starting with a concentration of 1 μM which was increased to 5 μM from day 14 until day 16 of differentiation, as is schematically illustrated in FIG. 8a). Control cells received 0.025% DMSO or 8 μg/ml puromycin during this time period (day 9 to day 16 of differentiation).

SMILES | reduction of the number of colonies compared to DMSO-treated control ([1]; 1 μM) | number of colonies after plating of 2×10^5 cells ([1]; 5 μM) | number of colonies after plating of 2×10^5 cells ([1]; 10 μM) | morphology and contractility of cardiac clusters ([2]; 1 μM, 5 μM and 10 μM, 48 hours) | fraction of GFP−/cTnT− non-CMs ([2]; 10 μM, flow cytometry) | fraction of GFP+/cTnT+ CMs of the viable cell population ([2]; increasing concentrations of SM6, flow cytometry) | reduction of the number of ESC-derived colonies compared to DMSO control ([3]; 1 μM) | reduction of the number of ESC-derived colonies compared to DMSO control ([3]; 5 μM) | reduction of the number of ESC-derived colonies compared to DMSO control ([3]; 10 μM) | fold higher yield of cTnT+ CMs compared to the treatment with puromycin ([4]; SM6 1 μM then 5 μM from day 14, p<0.01) | cTnT+ CM population [4] | fold increase of CM purity (cTnT+) compared to DMSO-treated control [4] | reduction of total cell yield relative to DMSO control [4] | CM yield higher compared to the DMSO-treated control group ([4]; in three out of five experiments) | number of colonies after plating of 2×10^5 cells ([1]; puromycin 8 μg/ml) | reduction of the number of colonies compared to DMSO-treated control ([1]; puromycin 8 μg/ml) | reduction of total cell yield compared to DMSO-treated control ([2]; puromycin 8 μg/ml) | reduction of the number of ESC-derived colonies compared to DMSO control ([3]; puromycin 8 μg/ml)
Oc1ccccc1CN[C@@H]1CCCC[C@H]1NCc1ccccc1O [SM6, (1R,2R)-N,N′-di(2-hydroxybenzyl)-1,2-diaminocyclohexane] | 71.9±21.19% | 2.00±2.94 colonies | 0.37±0.60 colonies | not compromised | 7% | up to 74% | 20.03±26.95% | 93.75±3.45% | 96.23±0.75% | 2.72±1.61 fold | 77.57±12.26% | 2.56±1.25 fold | 56.6±10.44% | 31-86% | – | – | – | –
COc1ccc(C[C@H](N)C(=O)N[C@H]2[C@@H](O)[C@H](n3cnc4c(N(C)C)ncnc43)O[C@@H]2CO)cc1 [puromycin, reference compound] | – | – | – | – | – | – | – | – | – | – | 93.26±3.05% | 3.08±1.42 fold | 92.17±3.53% | – | 28.9±23.37 colonies | 64.87±25.55% | 20.55±14.43% | 47.83±24.89%
